Data taken from patent EP4260865B1, “COMPOSITION COMPRISING PLANT EXTRACTS FOR TREATING HYPERCHOLESTEROLEMIA” (Anvest Group S.r.l., priority 2022, dated 2023).

Key:
[1] = test system: PCSK9; test: PCSK9 inhibition in HepG2 liver cells (mRNA levels by qRT-PCR); format: cell-based, human; conditions: 40 µM berberine or 40 µM equivalent berberine, compared to the control
Experimental: Immortalized HepG2 human hepatocellular carcinoma cells were cultured and then treated with berberine extract, and the composition of Example 1. After treatment, the cells were lysed and the mRNA (messenger RNA) levels for PCSK9 expression were evaluated by qRT-PCR using human-specific PCR primers. For each sample, the measurements were carried out at least in triplicate and the results were reported as the average of the single values.
The efficacy of the invention composition was tested against HepG2 immortalized human hepatocarcinoma cells. […] The inhibition of the messenger RNA (mRNA) encoding the translation of the protein PCSK9 plays a key role in the mechanisms of action aimed at maximizing the hepatic reuptake of LDL cholesterol. […]
As it is possible to see in Figure 1, the mRNA levels related to PCSK9 expression of HepG2 cells are influenced by treatment with 40 µM of berberine, showing a reduction of about 25% after 6 hours and of 40% after 24 hours, compared to the control. […] In fact, a reduction of more than 40% was recorded after 6 hours from the treatment, while at 24 hours inhibition levels equal to about 60% were detected, due to a synergistic effect also of the other components present in the mixture, capable of influencing the PCSK9-LDLR metabolic pathway.

[2] = target: T1, HMG CoA-reductase enzyme (Homo sapiens, UniProt P04035); test: HMG-CoA reductase activity in treated human liver cells (HUCPI), NADPH oxidation; format: cell-based; conditions: administered once in the 24-hour period, Figure 4
T1 construct: First-line human liver cells (HUCPI) were cultured and treated with some compositions; endogenous in cells; host or cells: HUCPI first-line human liver cells
T1 sequence (P04035 1-888): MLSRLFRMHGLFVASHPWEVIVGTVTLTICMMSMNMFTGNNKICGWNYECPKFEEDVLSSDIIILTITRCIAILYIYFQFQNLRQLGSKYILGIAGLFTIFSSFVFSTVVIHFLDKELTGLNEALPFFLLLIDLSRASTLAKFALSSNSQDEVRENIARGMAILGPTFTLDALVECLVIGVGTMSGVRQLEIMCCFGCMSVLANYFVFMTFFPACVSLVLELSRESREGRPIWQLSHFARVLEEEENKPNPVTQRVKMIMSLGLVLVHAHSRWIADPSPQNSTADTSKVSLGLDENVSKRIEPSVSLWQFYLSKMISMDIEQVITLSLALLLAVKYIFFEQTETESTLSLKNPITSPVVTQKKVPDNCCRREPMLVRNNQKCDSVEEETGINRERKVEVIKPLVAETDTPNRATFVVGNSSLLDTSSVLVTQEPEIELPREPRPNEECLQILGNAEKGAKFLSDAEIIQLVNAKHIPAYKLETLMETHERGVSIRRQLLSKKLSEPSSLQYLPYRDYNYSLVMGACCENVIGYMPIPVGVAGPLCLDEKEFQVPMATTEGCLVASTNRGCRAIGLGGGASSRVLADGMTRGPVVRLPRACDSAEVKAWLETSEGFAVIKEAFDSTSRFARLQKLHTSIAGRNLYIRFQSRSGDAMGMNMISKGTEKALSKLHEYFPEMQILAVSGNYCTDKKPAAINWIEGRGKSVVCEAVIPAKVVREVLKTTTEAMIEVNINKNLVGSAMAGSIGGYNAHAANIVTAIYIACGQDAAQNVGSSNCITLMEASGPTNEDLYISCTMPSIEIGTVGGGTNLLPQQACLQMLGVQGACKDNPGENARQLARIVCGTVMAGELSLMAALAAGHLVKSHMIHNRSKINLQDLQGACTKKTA
Experimental: First-line human liver cells (HUCPI) were cultured and treated with some compositions, and with atorvastatin as a control, to evaluate the inhibition capacity of the HMG CoA-reductase enzyme. The enzymatic activity of HMG-CoA reductase was evaluated by measuring the dependent oxidation of NAPDH. For each sample, the measurements were carried out at least in triplicate, and the results were reported as the average of the single values.
The HUCPI cells were treated with the composition of Example 1 and with solutions of single extracts of Policosanols, and a mixture containing Policosanols, Oleuropein and Ipomea batata, in amounts equivalent to the ingredients of the composition of Example 1. After treatment, the cells were lysed and the catalytic fragment of the protein HMGR was cloned, overexpressed, and purified.

SMILES	reduction of mRNA levels related to PCSK9 expression ([1]; after 6 hours)	reduction of mRNA levels related to PCSK9 expression ([1]; after 24 hours) [%]	activity of HMRG [2]
COc1ccc2cc3[n+](cc2c1OC)CCc1cc2c(cc1-3)OCO2 [berberine]	about 25%	40	
CC(C)c1c(C(=O)Nc2ccccc2)c(-c2ccccc2)c(-c2ccc(F)cc2)n1CC[C@@H](O)C[C@@H](O)CC(=O)O [atorvastatin]			significantly reduced the activity of HMRG
